Patent publication US20240165135A1, “COMPOSITIONS AND METHODS FOR THE TREATMENT OF CANCER” (The State of Israel, Ministry of Agriculture & Rural …, priority 2021, published 2024)

Assays:
[1] = system: ovarian cancer cell line HTB75; test: XTT cell viability assay on HTB75; assay type: cell-based; settings: for effect of IA, AN or B alone on HTB75 cell viability: 10 μM, 48 h
Description: FIGS. 17A-B show cell viability of HTB75 cells (FIG. 17A) following treatment with crude extract of cannabis strains DQ, Paris, GB-11, GB-14 and GB-18. Cell viability was determined by XTT assay as a function of live cell number. NT is the vehicle treated control (1% v/v methanol). Error bars indicate ±SE (n=3). […] (FIG. 17B) following treatment with C. sativa DQ crude extract at different concentrations for IC50 value calculation from 5P logistic curve fit using GraphPad Prism version 6.1. Error bars indicate ±SE (n=3).
FIGS. 18A-C show cell viability of HTB75 cells following treatment with DQ extract fractions F1-F8, and crude extract. FIG. 18A—Cell viability was determined by XTT assay as a function of live cell number. NT is the vehicle treated control (1% v/v methanol). Error bars indicate ±SE (n=3). […] (FIGS. 18B-C) Cell viability of HTB75 cells following treatment with C. sativa DQ fractions F5 and F7 at different concentrations for IC50 values calculation from 5P logistic curve fit using GraphPad Prism version 6.1. Error bars indicate ±SE (n=3).
(§1) Cell viability assays—Cells were seeded in 96-well plates at density of 2×10^4 per well (100 μL/well) in SFM (for A172) or complete medium (for U87) and were incubated at 37° C. overnight to allow attachment. The following day, cells were treated with plant extracts (n=3), fractions, or cannabinoid standards in volume of 100 μL/well at different concentrations. Solvents used as a vehicle control and doxorubicin was used as a positive control in all the biological assays. Where indicated, CB1 or CB2 inverse agonists, TRPV1 or TRPV2 antagonists or TRPA1 blocker were added along with the indicated treatments at a concentration of 10 μM/mL in complete medium. Treated cells were incubated for 48 h at 37° C. Subsequently, XTT reagents (2,3-bis(2-methoxy-4-nitro-5-sulfophenyl)-5-[(phenylamine)-carbonyl]-2H-tetrazolium inner salt) (20-300-1000; Biological Industries, Israel) were added to the cells for 2 hours at 37° C. in a humidified 5% CO2—95% air atmosphere. Absorbance was recorded by a Synergy H1 hybrid reader photometer (BioTek) at 490 nm with 650 nm of reference wavelength. Cell viability was estimated from the equation: […]
(§2) For dose response assays, data points were connected by non-linear regression lines of the sigmoidal dose-response relation. GraphPad Prism version 6.1 (www(dot)graphpad(dot)com/scientific-software/prism/, GraphPad Software Inc., San Diego, USA) was employed to produce dose-response curves and determination of IC50 values.

A172 GBM cells = test: XTT cell viability assay on A172; assay type: cell-based, Human; settings: for effect of IA, AN or B alone on A172 cell viability: 10 μM; for IC50: Homo sapiens, A 172, 48 h
Description: Cell cultures—Human glioblastoma A172 (ATCC®CRL-1620™) was cultured in DMEM (01-055-1A, Biological Industries, Israel) and U87MG (U87; ATCC®HTB-14™) in EMEM (01-058-1A; Biological Industries, Israel). Both media were supplemented with 10% fetal bovine serum (FBS, 04-127-1A, Biological Industries, Israel), 1% Pen-Strep, 1% L-Glutamine and 0.02% plasmocin (i.e., complete medium). Cells were incubated at 37° C. in a humidified atmosphere containing 5% CO2—95% air. Serum free media (SFM) was composed of DMEM/F12 (01-170-1A; Biological Industries, Israel), including all the supplements above except for FBS. Neurosphere media for A172 was composed of SFM with 2% B-27; Neurosphere media for U87 was serum-free EMEM without B27. For Glioblastoma stem cells (GSCs) cultures all human materials were used in accordance with the policies of the Henry Ford Hospital Institutional Review Board. Generation of GSCs from fresh GBM specimens and their characterization have been recently described. The GSCs were plated in neurosphere medium (DMEM-F12 1:1, glutamine 10 mM, HEPES buffer 10 mM and sodium bicarbonate 0.025%) supplemented with EGF and bFGF (20 ng/mL).
as §1, §2

A172 cells = test: Scratch-wound assay, A172 cell migration; assay type: cell-based, Human; settings: 36 hours; F4 20, F4-SM 11.5, F5 20, F5-SM 11.5, Doxo 0.5 μg/mL
Description: Scratch-wound assay—A172 cells were seeded in a 96-well plate at a density of 2×10^4 per well in 100 μL of complete medium. Following 24 hours, cells in each well were scratched perpendicularly across the center of the well with a 200 μL pipette tip to produce a cell-free area for investigating the ability of the cells to migrate and close the gap under different treatments. Immediately following scratching, 100 μL of treatment solution was added. Photos were taken by a CARL ZEISS inverted microscope coupled with a camera at 0, 14, 20, and 36 hours following scratching, and the gap area was measured using ImageJ (version 1.53a). The scratch area, indicated by cells migrated into the scratch was calculated as percent of scratch area at time x from time 0: […]

MAPK4 gene = test: Quantitative PCR of MAPK4 gene in HTB75 cell line; assay type: cell-based; settings: 2 h, relative to control
Description: FIG. 24 is a graph showing quantitative PCR-based determination of the RNA steady state level in HTB75 cell line of MAPK4 gene, after treatment with niraparib, F5, F7 or combination of niraparib+F5 or niraparib+F7, for 2 h relative to control. Gene transcript values were determined by quantitative PCR as a ratio between the target gene versus a reference gene (Hypoxanthine Phosphoribosyltransferasel; HPRT1; geneID 3251). Values were calculated relative to the average expression of target genes in treated versus control using the 2ΔΔCt method. Control (methanol) treatment served as solvent (vehicle) control; Error bars indicate ±s.e.m. (n=3).

HTB75 cells [2] = test: Cell cycle FACS, HTB75; assay type: cell-based; settings: 24 h; F5-SM 17.4 μg/mL, niraparib 4 μg/mL; control 21.4%
Description: (§3) 10^4 cells were analyzed per treatment. Control is vehicle control (1.5% v/v methanol). The treated cells were harvested and analyzed in FACS following annexin V-FITC and PI staining. Error bars indicate ±SE (n=3).
Cell cycle analysis—A172 cells were seeded in 6-well TC plate at a concentration of 4×10^5 cells in 2 mL of SFM per well. Following 24 hours incubation, cells were treated with indicated treatments in complete medium for 24 hours. Methanol and doxorubicin were used as negative and positive controls, respectively. Cells were harvested and centrifuged for 5 minutes at 1600 rpm. Cell pellets were washed once with 1 mL of PBS and fixed with 70% cold ethanol overnight at −20° C. The fixed cells were washed twice with 1 mL of PBS and stained with 250 μL of PI solution (50 μg/mL) containing RNase A (100 μg/mL) for 30 minutes in dark conditions. 250 μL PBS was added to each tube and the cells were analyzed using FACS.

HTB75 cells [3] = test: Apoptosis/necrosis, annexin V-FITC and PI FACS, HTB75; assay type: cell-based; settings: 48 h; niraparib 5.1, F5 19.1, F7 19.4, F5-SM 17.4, F7-SM 16.3 μg/mL; vehicle control 17.3%
Description: as §3
Apoptosis assay—Apoptosis for the A172 cell line was assessed using MEBCYTO Apoptosis Kit with Annexin V-FITC and PI (MBL, Enco, 4700). Staining was carried out according to manufacturer's instructions. In brief, cells were seeded in a 6-well TC plate, at a density of 4×10^5 cells in 2 mL of SFM per well. 24 hours following seeding, cells were treated with the indicated treatments in complete medium for 48 hours. Following incubation, cells were harvested using trypsin and centrifuged for 5 minutes at 1600 rpm. Cell pellets were resuspended and washed twice with 1 mL of PBS. The cells in each sample were resuspended in 85 μL of Annexin binding buffer. Cells were stained using 10 μL of Annexin V-FITC solution and 5 μL of propidium iodide (PI) working solution followed by incubation in the dark at room temperature for 15 minutes. Then 400 μL of Annexin V binding buffer was added to each tube and flow cytometry was performed using a Gallios flow cytometer (FACS). Cells were considered apoptotic if they were Annexin V+/PI− (early apoptosis) or Annexin V+/PI+ (late apoptosis). Live cells were defined as Annexin V−/PI−, and Annexin V−/PI+ as necrosis.

HTB75 cells [4] = test: Combined treatments with chemotherapy drugs on HTB75 viability, Bliss-independence model; assay type: cell-based; settings: combination treatments
Description: FIGS. 23A-C are graphs showing synergistic interactions between fractions of some embodiments of the invention with (FIG. 23A) cisplatin, (FIG. 23B) gemcitabine and (FIG. 23C) niraparib on cell viability of HTB75 cells following combined treatments. Synergy of cytotoxic activity calculated based on Bliss-independence drug interaction model. Synergy is apparent when the experimental (observed) value of cell survival inhibition is higher than the calculated (expected) value. Values of delta of observed minus expected values, calculated based on Bliss model are shown in the Y axis.

[5] = given orally per mouse; reference [2]; cited from earlier work

Molecule: SR144528 [CB2 IA]
- effect of IA, AN or B alone on HTB75 cell viability [1]: did not affect HTB75 cell viability
- effect of IA, AN or B alone on A172 cell viability (A172 GBM cells; 48 hours): reduced A172 cell viability to a minor, non-significant extent

Molecule: CCCCCc1cc(O)c(C/C=C(\C)CCC=C(C)C)c(O)c1 [CBG, cannabigerol]
- IC50 (A172 GBM cells): 5 µg/mL
- inhibition of cell migration in comparison to the vehicle control (A172 cells): 2.8%

Molecule: COc1cccc(NC(=O)/C=C/c2ccc(Cl)cc2)c1 [TRPV1 AN, SB-366791]
- effect of IA, AN or B alone on HTB75 cell viability [1]: did not affect HTB75 cell viability
- effect of IA, AN or B alone on A172 cell viability (A172 GBM cells; 48 hours): reduced A172 cell viability to a minor, non-significant extent

Molecule: NC(=O)c1cccc2cn(-c3ccc([C@@H]4CCCNC4)cc3)nc12 [niraparib]
- MAPK4 expression (MAPK4 gene): reduced
- percentage of cells in S phase (HTB75 cells [2]): 48.3%
- cell apoptosis (HTB75 cells [3]): 64.1%

Molecule: CCCCCc1cc(O)c2c(c1)OC(C)(C)[C@@H]1CCC(C)=C[C@@H]21 [THC, Tetrahydrocannabinol]
- effectiveness of phytocannabinoid combinations on HTB75 viability ([1]; fixed total concentration 13 and 15 μg/mL, ratios as in F5 or F7): less effective than various combinations of THC, CBC, CBG and CBN
- IC50 (A172 GBM cells): 4.83 µg/mL
- inhibition of cell migration in comparison to the vehicle control (A172 cells): 12.5%

Molecule: Nc1ccn([C@@H]2O[C@H](CO)[C@@H](O)C2(F)F)c(=O)n1 [Gemcitabine]
- synergy of gemcitabine with F5, F7, F5-SM, F7-SM (HTB75 cells [4]): no considerable synergy

Molecule: CC(C)c1ccc(NC(=O)Cn2cnc3c2c(=O)n(C)c(=O)n3C)cc1 [TRPA1 B, HC-030031]
- effect of IA, AN or B alone on HTB75 cell viability [1]: did not affect HTB75 cell viability
- effect of IA, AN or B alone on A172 cell viability (A172 GBM cells; 48 hours): reduced A172 cell viability to a minor, non-significant extent

Molecule: Cn1nnc2c(C(N)=O)ncn2c1=O [TMZ, temozolomide]
- effect on A172 viability / cell death (A172 GBM cells; up to 50 μg/mL, 48 hours): no effect

Molecule: Cc1c(C(=O)NN2CCCCC2)nn(-c2ccc(Cl)cc2Cl)c1-c1ccc(I)cc1 [AM251]
- effect of IA, AN or B alone on HTB75 cell viability [1]: did not affect HTB75 cell viability
- effect of IA, AN or B alone on A172 cell viability (A172 GBM cells; 48 hours): reduced A172 cell viability to a minor, non-significant extent

Molecule: CO [methanol]
- LD50 [5]: ~7300 mg/kg
